Source: US20030068615A1, “Polypeptides that bind HIV gp120 and related nucleic acids, antibodies, compositions, and methods of use” (priority 1999, published 2003)
Values joined by “and” are separate entries in the source; they are usually repeats but may differ in a detail not shown here. Identical values can stand only once. Like-named read-outs stand apart in the source and are kept apart here.

Target: HIV-1LAI envelope gp120 (Human immunodeficiency virus type 1 group M subtype B, UniProt P03377)
Assay type: binding
Conditions: for Counts per 20′ Average-background: CCR5 18-mer scan, radiolabeled HIV-1LAI gp120
[1] = Panel B, 15-mers and 18-mers of CD4, empty control 575
[2] = STRL33 18-mer scan, background subtracted, first of two count columns
[3] = STRL33 18-mer scan, background subtracted, second of two count columns
[4] = Panel E, 9-mers and 12-mers of CD4, empty control 571
[5] = Panel C, 15-mers and 18-mers of CD4, empty control 556
[6] = CXCR4 18-mer scan, background subtracted, empty control 0
[7] = CXCR4 18-mer scan, empty control 412
[8] = Panel D, 9-mers and 12-mers of CD4, empty control […]
[9] = Panel A, 21-mers of CD4, empty control 515 and 617

THLLQGQSLTLTLES
COUNTS of radiolabeled gp120 retained [1]: 1874 counts
COUNTS of radiolabeled gp120 retained (Panel F, sequential alanine replacements of CD4 polypeptides, duplicate series, empty control 569): 7756 counts and 6545 counts and 4787 counts and 5947 counts
COUNTS of radiolabeled gp120 retained (Panel G, alanine replacements and serial truncations (Z) of CD4 polypeptides, empty control 580): 10850 counts and 9756 counts

TIMVTEAIAYLRACLNPV [STRL33 segment 269-286]
radioactive counts recorded in twenty minutes [2]: 140.5 counts
radioactive counts recorded in twenty minutes [3]: 272.5 counts

TLGFFLPLLTMIVCYSVI
radioactive counts recorded in twenty minutes [2]: 2387.5 counts
radioactive counts recorded in twenty minutes [3]: 479.5 counts

TLLHAGGFQKHRSLKIIF
radioactive counts recorded in twenty minutes [2]: 1041.5 counts
radioactive counts recorded in twenty minutes [3]: 999.5 counts

TVEKLTGSG
COUNTS of radiolabeled gp120 retained [4]: 487 counts

TVEKLTGSGELW
COUNTS of radiolabeled gp120 retained [4]: 573 counts

TVEKLTGSGELWWQA
COUNTS of radiolabeled gp120 retained [5]: 550 counts

TVILILAFFACWLPYYIG
radioactive counts recorded in twenty minutes [6]: 323 counts
radioactive counts recorded in twenty minutes [7]: 735 counts

TVLQNQKKV
COUNTS of radiolabeled gp120 retained [4]: 534 counts

TVLQNQKKVEFKIDI
COUNTS of radiolabeled gp120 retained [5]: 587 counts

TVLQNQKKVEFKIDIVVL
COUNTS of radiolabeled gp120 retained [5]: 655 counts

TVNLYSSVLILAFISLDR
radioactive counts recorded in twenty minutes [6]: 242 counts
radioactive counts recorded in twenty minutes [7]: 654 counts

TVTFGVVTSVITWVVAVF
Counts per 20′ Average-background (background subtracted): −25 counts per 20′

TVVLATQMTLGFFLPLLT [STRL33 segment 189-206]
radioactive counts recorded in twenty minutes [2]: 2327.5 counts
radioactive counts recorded in twenty minutes [3]: 2389.5 counts

TYICEVEDQ
COUNTS of radiolabeled gp120 retained [8]: 805 counts

TYICEVEDQKEE
COUNTS of radiolabeled gp120 retained [8]: 818 counts

TYICEVEDQKEEVQL
COUNTS of radiolabeled gp120 retained [1]: 956 counts

TYICEVEDQKEEVQLLVF
COUNTS of radiolabeled gp120 retained [1]: 3794 counts

VCTLPFWAYAGIHEWVFG [STRL33 segment 81-98]
radioactive counts recorded in twenty minutes [2]: 1819.5 counts
radioactive counts recorded in twenty minutes [3]: 1754.5 counts

VCYSVIIKTLLHAGGFQK [STRL33 segment 209-226]
radioactive counts recorded in twenty minutes [2]: 1334.5 counts
radioactive counts recorded in twenty minutes [3]: 1143.5 counts

VDRFIVVVKATKAYNQQA
radioactive counts recorded in twenty minutes [2]: 103.5 counts
radioactive counts recorded in twenty minutes [3]: 53.5 counts

VEDQKEEVQ
COUNTS of radiolabeled gp120 retained [8]: 521 counts

VEDQKEEVQLLV
COUNTS of radiolabeled gp120 retained [8]: 657 counts

VEDQKEEVQLLVFGL
COUNTS of radiolabeled gp120 retained [1]: 3816 counts

VEDQKEEVQLLVFGLTAN
COUNTS of radiolabeled gp120 retained [1]: 3913 counts

VEFKIDIVV
COUNTS of radiolabeled gp120 retained [4]: 548 counts

VEFKIDIVVLAF
COUNTS of radiolabeled gp120 retained [4]: 681 counts

VEFKIDIVVLAFQKA
COUNTS of radiolabeled gp120 retained [5]: 1005 counts

VEFKIDIVVLAFQKASSI
COUNTS of radiolabeled gp120 retained [5]: 819 counts

VEFKIDIVVLAFQKASSIVYK
COUNTS of radiolabeled gp120 retained [9]: 725 counts

VEFSFPLAF
COUNTS of radiolabeled gp120 retained [4]: 1064 counts

VEFSFPLAFTVE
COUNTS of radiolabeled gp120 retained [4]: 518 counts

VEFSFPLAFTVEKLT
COUNTS of radiolabeled gp120 retained [5]: 899 counts

VEFSFPLAFTVEKLTGSG
COUNTS of radiolabeled gp120 retained [5]: 533 counts

VEFSFPLAFTVEKLTGSGELW
COUNTS of radiolabeled gp120 retained [9]: 633 counts

VEKLTGSGE
COUNTS of radiolabeled gp120 retained [4]: 585 counts

VEKLTGSGELWW
COUNTS of radiolabeled gp120 retained [4]: 477 counts

VEKLTGSGELWWQAE
COUNTS of radiolabeled gp120 retained [5]: 735 counts

VFASLPGIIFTRSQKEGL [CCR5 segment 157-]
Counts per 20′ Average-background (background subtracted): 54 counts per 20′

VFGLTANSD
COUNTS of radiolabeled gp120 retained [8]: 549 counts

VFGLTANSDTHL
COUNTS of radiolabeled gp120 retained [8]: 548 counts

VFGLTANSDTHLLQG
COUNTS of radiolabeled gp120 retained [1]: 532 counts

VFGLTANSDTHLLQGQSL
COUNTS of radiolabeled gp120 retained [1]: 531 counts

VFVCGLVGNSLVLVISIF [STRL33 segment 41-58]
radioactive counts recorded in twenty minutes [2]: 570.5 counts
radioactive counts recorded in twenty minutes [3]: 284.5 counts

VIIKTLLHAGGFQKERSL
radioactive counts recorded in twenty minutes [2]: 961.5 counts
radioactive counts recorded in twenty minutes [3]: 682.5 counts

VISLLVSLPQIIYGNVFN
radioactive counts recorded in twenty minutes [2]: −60.5 counts
radioactive counts recorded in twenty minutes [3]: −127.5 counts

VKQIAARLLPPLYSLVFI [CCR5 segment 25-42]
Counts per 20′ Average-background (background subtracted): 18 counts per 20′

VLAFQKASS
COUNTS of radiolabeled gp120 retained [4]: 466 counts
